Source: patent publication US20240158446A1, “CYCLIC COMPOUND HAVING SELECTIVE INHIBITORY ACTION ON KRAS OVER HRAS AND NRAS” (CHUGAI SEIYAKU KABUSHIKI KAISHA, priority 2021, published 2024)
Where a SMILES comes first, the peptide text is derived from it. Bridges are numbered along the chain shown (N, C = ends). [ ]: non-standard residue; d: D form. The star is where a group is joined. hPhe(3-Cl-4-CF3) = N[C@@H](CCc1ccc(C(F)(F)F)c(Cl)c1)C(=O)O; NEtPhe(4-Me) = CCN[C@@H](Cc1ccc(C)cc1)C(=O)O; NMeGly(cPent) = CN[C@H](C(=O)O)C1CCCC1; Hyp = O=C(O)[C@@H]1C[C@@H](O)CN1; NMeD = CN[C@@H](CC(=O)O)C(=O)O; NMeL = CN[C@@H](CC(C)C)C(=O)O; Morpholide = C1CN(*)CCO1; NMeA = CN[C@@H](C)C(=O)O; Ac5c = NC1(C(=O)O)CCCC1; Aze = O=C(O)[C@@H]1CCN1; X51 = C1CCC(*)OC1; Sar = CNCC(=O)O

Tests used:
[1] = molecular target: GDP-bound NRAS wild-type protein (Homo sapiens, UniProt P01111); assay: Binding to NRAS by surface plasmon resonance (SPR), Single Cycle Kinetics; conditions: for NRAS/KRAS (ratio of KD value with respect to GDP-bound NRAS wild-type protein to KD value with respect to KRAS): SPR KD ratio NRAS/KRAS, class symbols
Sequence of GDP-bound NRAS wild-type protein (P01111 whole entry): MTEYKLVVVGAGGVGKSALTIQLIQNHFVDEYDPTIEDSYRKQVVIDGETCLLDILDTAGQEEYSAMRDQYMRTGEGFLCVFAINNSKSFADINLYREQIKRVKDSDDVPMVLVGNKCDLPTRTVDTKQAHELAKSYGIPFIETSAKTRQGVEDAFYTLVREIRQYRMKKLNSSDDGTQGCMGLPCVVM

[2] = molecular target: GDP-bound HRAS wild-type protein (Homo sapiens, UniProt P01112); assay: Binding to HRAS by surface plasmon resonance (SPR), Single Cycle Kinetics; conditions: for HRAS/KRAS (ratio of KD value with respect to GDP-bound HRAS wild-type protein to KD value with respect to KRAS): SPR KD ratio HRAS/KRAS, class symbols
Sequence of GDP-bound HRAS wild-type protein (P01112 whole entry): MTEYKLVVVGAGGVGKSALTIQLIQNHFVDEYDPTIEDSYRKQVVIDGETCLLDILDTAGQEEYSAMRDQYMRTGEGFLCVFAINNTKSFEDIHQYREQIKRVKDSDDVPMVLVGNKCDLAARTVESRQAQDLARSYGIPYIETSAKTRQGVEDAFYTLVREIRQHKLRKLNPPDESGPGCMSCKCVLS

[3] = SPR, GDP-bound NRAS wild-type protein vs GDP-bound KRAS wild-type protein
[4] = SPR, GDP-bound HRAS wild-type protein vs GDP-bound KRAS wild-type protein

With `CCO[C@@H]1C[C@H]2C(=O)NC3(CCCC3)C(=O)N(C)[C@@H](C3CCCC3)C(=O)N(C)[C@H](C(=O)N(C)C)CC(=O)N(C)[C@@H](CC(C)C)C(=O)N[C@@H]([C@@H](C)CC)C(=O)N(C)CC(=O)N(C)[C@H]3C/C=C\CCN(C3=O)[C@@H](Cc3ccc(C(F)(F)F)cc3)C(=O)N(C)CC(=O)N[C@@H](CCc3cc(F)c(C(F)(F)F)c(F)c3)C(=O)N2C1` [PP1105, (2S,8S,12R,14S,20S,23S,27S,30S,36S,38Z)-20-cyclopentyl-8-[2-[3,5-difluoro-4-(trifluoromethyl)phenyl]ethyl]-12-ethoxy-27-isobutyl-N,N,4,19,22,26,32,35-octamethyl-30-[(1S)-1-methylpropyl]-3,6,9,15,18,21,25,28,31,34,42-undecaoxo-2-[[4-(trifluoromethyl)phenyl]methyl]spiro[1,4,7,10,16,19,22,26,29,32,35-undecazatricyclo[34.5.1.0^10,14]dotetracont-38-ene-17,1′-cyclopentane]-23-carboxamide] the “NRAS/KRAS (ratio of KD value for NRAS to KD value for KRAS)” value [1, 3] was “A (a compound having 10 or more and less than 20 is denoted as A)” and the “HRAS/KRAS (ratio of KD value for HRAS to KD value for KRAS)” value [2, 4] was “A (a compound having 10 or more and less than 20 is denoted as A)”.

With `CC[C@H](C)[C@@H]1NC(=O)[C@H](CC(C)C)N(C)C(=O)C[C@@H](C(=O)N2CCOCC2)N(C)C(=O)[C@H](C2CCCC2)N(C)C(=O)C2(CCCC2)NC(=O)[C@@H]2C[C@@H](OC3CCCCO3)CN2C(=O)[C@H](CCc2ccc(C(F)(F)F)c(Cl)c2)NC(=O)CN(C)C(=O)[C@H](Cc2ccc(C)cc2)N(CC)C(=O)[C@@H]2CCN2C(=O)[C@H](C)N(C)C1=O` (some centres unmarked) [PP0067] ([NMeL]I[NMeA][Aze][NEtPhe(4-Me)][Sar][hPhe(3-Cl-4-CF3)][Hyp](X51)[Ac5c][NMeGly(cPent)][NMeD]-Morpholide; lactam N-11) the “NRAS/KRAS (ratio of KD value for NRAS to KD value for KRAS)” value [1, 3] was “C (A compound having a KD ratio of 0.1 or more and less than 3 is denoted as C)” and the “HRAS/KRAS (ratio of KD value for HRAS to KD value for KRAS)” value [2, 4] was “C (A compound having a KD ratio of 0.1 or more and less than 3 is denoted as C)”.

In the case of `CCO[C@@H]1C[C@H]2C(=O)NC3(CC(C)(C)C3)C(=O)N(C)[C@@H](C3CCCC3)C(=O)N(C)[C@H](C(=O)N(C)C)CC(=O)N(C)[C@@H](CC(C)C)C(=O)N[C@@H]([C@@H](C)CC)C(=O)N(C)CC(=O)N(C)[C@H]3C/C=C\CCN(C3=O)[C@@H](Cc3ccc(OC)cc3)C(=O)N(C)CC(=O)N[C@@H](CCc3ccc(C(F)(F)F)c(OC)c3)C(=O)N2C1` [PP2693], the “NRAS/KRAS (ratio of KD value with respect to GDP-bound NRAS wild-type protein to KD value with respect to KRAS)” value [1] is reported as “A (a compound having 10 or more and less than 20 is denoted as A)” and the “HRAS/KRAS (ratio of KD value with respect to GDP-bound HRAS wild-type protein to KD value with respect to KRAS)” value [2] is reported as “B (a compound having 3 or more and less than 10 is denoted as B)”.

`CCC[C@H]1C(=O)N[C@@H]([C@@H](C)CC)C(=O)N(C2CC2)CC(=O)N(C)[C@H]2C/C=C\CCN(C2=O)[C@@H](Cc2ccc(C)cc2)C(=O)N(C)CC(=O)N[C@@H](CCc2cc(Cl)c(C(F)F)c(Cl)c2)C(=O)N2C[C@H](OCC)C[C@H]2C(=O)NC2(CC(C)(C)C2)C(=O)N(C)[C@@H](C2CCCC2)C(=O)N(C)[C@H](C(=O)N(C)C)CC(=O)N1C` [PP2877] was tested, and the “NRAS/KRAS (ratio of KD value with respect to GDP-bound NRAS wild-type protein to KD value with respect to KRAS)” value [1] was “A (a compound having 10 or more and less than 20 is denoted as A)” and the “HRAS/KRAS (ratio of KD value with respect to GDP-bound HRAS wild-type protein to KD value with respect to KRAS)” value [2] was “A (a compound having 10 or more and less than 20 is denoted as A)”.

With `C=CCCCCN(C)C(=O)[C@@H]1CC(=O)N(C)[C@@H](CC2CC2)C(=O)N[C@@H](CC=C)C(=O)N(C)CC(=O)N(C)[C@H]2C/C=C\CCN(C2=O)[C@@H](Cc2ccc(C(F)(F)F)cc2)C(=O)N(C)CC(=O)N[C@@H](CCc2cc(F)c(C(F)(F)F)c(F)c2)C(=O)N2C[C@H](OCC)C[C@H]2C(=O)NC2(CCC2)C(=O)N(C)[C@@H](C2CCCC2)C(=O)N1C` [PP1554] the “NRAS/KRAS (ratio of KD value for NRAS to KD value for KRAS)” value ([1]; SPR, GDP-bound NRAS wild-type protein vs GDP-bound KRAS wild-type protein, KD ratio class) was “A (a compound having 10 or more and less than 20 is denoted as A)” and the “HRAS/KRAS (ratio of KD value for HRAS to KD value for KRAS)” value ([2]; SPR, GDP-bound HRAS wild-type protein vs GDP-bound KRAS wild-type protein, KD ratio class) was “A (a compound having 10 or more and less than 20 is denoted as A)”.

For `CC[C@H](C)[C@@H]1NC(=O)[C@H](CC(C)C)N(C)C(=O)C[C@@H](C)N(C)C(=O)[C@H](C2CCCC2)N(C)C(=O)C2(CCC2)NC(=O)[C@@H]2CCCN2C(=O)[C@H](CCc2cc(F)c(C(F)(F)F)c(F)c2)NC(=O)CN(C)C(=O)[C@H](Cc2ccc(C(F)(F)F)cc2)N2CC/C=C\C[C@@H](C2=O)N(C)C(=O)CN(C)C1=O` [PP1099], the “NRAS/KRAS (ratio of KD value for NRAS to KD value for KRAS)” value [1, 3] was “B (a compound having 3 or more and less than 10 is denoted as B)” and the “HRAS/KRAS (ratio of KD value for HRAS to KD value for KRAS)” value [2, 4] was “A (a compound having 10 or more and less than 20 is denoted as A)”.

In the case of `CC[C@H](C)[C@@H]1NC(=O)[C@H](CC(C)C)N(C)C(=O)C[C@@H](C(=O)N2CCOCC2)N(C)C(=O)[C@H](C2CCC2)N(C)C(=O)C2(CCCC2)NC(=O)[C@@H]2CCCN2C(=O)[C@H](CCc2cc(F)c(C(F)(F)F)c(F)c2)NC(=O)CN(C)C(=O)[C@H](Cc2ccc(C(F)(F)F)cc2)N2CCCCC[C@@H](C2=O)N(C)C(=O)CN(C)C1=O` [PP0504], the “NRAS/KRAS (ratio of KD value with respect to NRAS to KD value with respect to KRAS)” value [1, 3] is reported as “B (a compound having 3 or more and less than 10 is denoted as B)” and the “HRAS/KRAS (ratio of KD value with respect to HRAS to KD value with respect to KRAS)” value [2, 4] is reported as “B (a compound having 3 or more and less than 10 is denoted as B)”.
